Assay results from patent publication US20220000110A1, “COMPOSITIONS COMPRISING PYRIDINE CARBOXYLATE HERBICIDES AND CELLULOSE BIOSYNTHESIS INHIBITOR HERBICIDES” (priority 2018, published 2022).

Columns and labels:
Assay in all cases: Greenhouse postemergence herbicidal effect, visual injury after 20-22 d
Type in all cases: in vivo
[1] = test system: Abutilon theophrasti (velvetleaf); settings: ABUTH
Description: (§1) Greenhouse Trial Methodology—Evaluation of Postemergence Herbicidal Effect
(§2) Seeds of the desired test plant species were planted in a 90:10% v/v (volume/volume) mixture of PRO-MIX® BX (Premier Tech Horticulture, Quakertown, Pa., USA) and PROFILE® GREENS GRADE™ (Profile Products LLC, Buffalo Grove, Ill., USA) planting mixture, which typically has a pH of 5.2 to 6.2 and an organic matter content of at least 50 percent, in plastic pots with a surface area of 103.2 square centimeters (cm^2). In some aspects, to help ensure good germination and healthy plants, a fungicide treatment and/or other chemical or physical treatment was applied. The plants were grown for 7-36 days (d) in a greenhouse with an approximate 14-hour (h) photoperiod which was maintained at about 23° C. during the day and 22° C. during the night. Nutrients and water were added on a regular basis and supplemental lighting was provided with overhead metal halide 1000-Watt lamps as necessary. The plants were employed for testing when they reached the second or third true leaf stage.
(§3) Emulsifiable concentrates of each of each pyridine carboxylate herbicide (Compound A or Compound B) were prepared at 100 grams acid equivalent per liter (g ae/L). The emulsifiable concentrates also included a safener, at 120 grams active ingredient per liter (g ai/L). An aliquot of each emulsifiable concentrate was placed in a 25 mL glass vial and diluted with an aqueous mixture of 1.25% (v/v) ACTIROB® B esterified rapeseed oil (Bayer Crop Science, Research Triangle Park, N.C., USA) or MSO® Concentrate with LECI-TECH® methylated soybean oil (Loveland Products, Loveland, Colo., USA) to obtain concentrated stock solutions at the highest application rate for each herbicide, based upon a 12 milliliter (mL) application volume at a rate of 187 liters per hectare (L/ha). The concentrated stock solutions were further diluted with an aqueous mixture of 1.25% v/v ACTIROB® B or MSO® Concentrate with LECI-TECH® to obtain stock solutions at reduced application rates for each herbicide. Spray solutions of the herbicide combinations (Compound A or Compound B plus the CBI herbicide) were prepared by adding weighed amounts or aliquots of the CBI herbicide to the stock solutions of Compound A or Compound B to form 12-mL spray solutions in two-way combinations.
(§4) The spray solutions were applied to the plant material with an overhead Mandel track sprayer equipped with 8002E nozzles calibrated to deliver 187 L/ha over an application area of 0.503 square meters (m^2) at a spray height of 18 inches (43 centimeters (cm)) above the average plant canopy. Control plants were sprayed in the same manner with the solvent blank. All pyridine carboxylate herbicide (component a) application rates are given as “g ae/ha” and all CBI herbicide (component b) application rates are given as “g ai/ha.”
(§5) The treated plants and control plants were placed in a greenhouse as described above and watered by sub-irrigation to prevent wash-off of the test compounds. After 20-22 d, the condition of the test plants as compared with that of the control plants was determined visually and scored on a scale of 0 to 100 percent where 0 corresponds to no injury and 100 corresponds to complete kill.

[2] = test system: Brassica napus (spring rape); settings: BRSNN
Description: as §1, §2, §3, §4, §5

[3] = test system: Brassica napus (winter rape); settings: BRSNW
Description: as §1, §2, §3, §4, §5

[4] = test system: Cirsium arvense (Canadian thistle); settings: CIRAR
Description: as §1, §2, §3, §4, §5

[5] = test system: Echinochloa crus-galli (barnyard grass); settings: ECHCG
Description: as §1, §2, §3, §4, §5

[6] = test system: Helianthus annuus (common sunflower); settings: Table 1, HELAN
Description: as §1, §2, §3, §4, §5

[7] = test system: Kochia scoparia (kochia); settings: KCHSC
Description: as §1, §2, §3, §4, §5

[8] = test system: Matricaria chamomilla (wild chamomile); settings: MATCH
Description: as §1, §2, §3, §4, §5

[9] = test system: Oryza sativa (common rice); settings: Table 1, ORYSA
Description: as §1, §2, §3, §4, §5

[10] = test system: Polygonum convolvulus (wild buckwheat); settings: POLCO
Description: as §1, §2, §3, §4, §5

[11] = test system: Salsola kali (Russian thistle); settings: SASKR
Description: as §1, §2, §3, §4, §5

[12] = test system: Stellaria media (chickweed); settings: Table 1, STEME
Description: as §1, §2, §3, §4, §5

For `N#CCOC(=O)c1nc(-c2ccc3cc[nH]c3c2F)c(F)c(N)c1Cl` [Compound A, cyanomethyl 4-amino-3-chloro-5-fluoro-6-(7-fluoro-1H-indol-6-yl)pyridine-2-carboxylate], the “Obs % visual injury” value ([1]; Table 1, Compound A 7.5 g/ha) was 68%, the “Obs % visual injury” value ([1]; Table 1, Compound A 10 g/ha) was 80% and the “Obs % visual injury” value ([1]; Table 2, Compound A 7.5 g/ha) was 68%. The “Obs % visual injury” value ([1]; Table 2, Compound A 10 g/ha) was 78%, the “Obs % visual injury” value ([2]; Table 1, Compound A 7.5 g/ha) was 65% and the “Obs % visual injury” value ([2]; Table 1, Compound A 10 g/ha) was 65%. For the same compound, the “Obs % visual injury” value ([2]; Table 2, Compound A 7.5 g/ha) was 73%, the “Obs % visual injury” value ([2]; Table 2, Compound A 10 g/ha) was 83% and the “Obs % visual injury” value ([3]; Table 3, Compound A 7.5 g/ha) was 60%. For the same compound, the “Obs % visual injury” value ([3]; Table 3, Compound A 10 g/ha) was 60%, the “Obs % visual injury” value ([3]; Table 3, Compound A 15 g/ha) was 75% and the “Obs % visual injury” value ([3]; Table 4, Compound A 7.5 g/ha) was 60%. The “Obs % visual injury” value ([3]; Table 4, Compound A 10 g/ha) was 60%, the “Obs % visual injury” value ([3]; Table 4, Compound A 15 g/ha) was 75% and the “Obs % visual injury” value ([4]; Table 1, Compound A 7.5 g/ha) was 40%. For the same compound, the “Obs % visual injury” value ([4]; Table 1, Compound A 10 g/ha) was 60%, the “Obs % visual injury” value ([4]; Table 2, Compound A 7.5 g/ha) was 23% and the “Obs % visual injury” value ([4]; Table 2, Compound A 10 g/ha) was 20%. The “Obs % visual injury” value ([5]; Table 1, Compound A 7.5 g/ha) was 88%, the “Obs % visual injury” value ([5]; Table 1, Compound A 10 g/ha) was 80% and the “Obs % visual injury” value ([5]; Table 2, Compound A 7.5 g/ha) was 73%. The “Obs % visual injury” value ([5]; Table 2, Compound A 10 g/ha) was 78%, the “Obs % visual injury” value ([6]; Compound A 7.5 g/ha) was 90% and the “Obs % visual injury” value ([6]; Compound A 10 g/ha) was 89%. For the same compound, the “Obs % visual injury” value ([7]; Table 1, Compound A 7.5 g/ha) was 75%, the “Obs % visual injury” value ([7]; Table 1, Compound A 10 g/ha) was 73% and the “Obs % visual injury” value ([7]; Table 2, Compound A 7.5 g/ha) was 60%. The “Obs % visual injury” value ([7]; Table 2, Compound A 10 g/ha) was 65%, the “Obs % visual injury” value ([7]; Table 3, Compound A 7.5 g/ha) was 70% and the “Obs % visual injury” value ([7]; Table 3, Compound A 10 g/ha) was 70%. The “Obs % visual injury” value ([7]; Table 3, Compound A 15 g/ha) was 70%, the “Obs % visual injury” value ([7]; Table 4, Compound A 7.5 g/ha) was 70% and the “Obs % visual injury” value ([7]; Table 4, Compound A 10 g/ha) was 70%. For the same compound, the “Obs % visual injury” value ([7]; Table 4, Compound A 15 g/ha) was 70%, the “Obs % visual injury” value ([8]; Table 3, Compound A 7.5 g/ha) was 8% and the “Obs % visual injury” value ([8]; Table 3, Compound A 10 g/ha) was 15%. The “Obs % visual injury” value ([8]; Table 3, Compound A 15 g/ha) was 10%, the “Obs % visual injury” value ([8]; Table 4, Compound A 7.5 g/ha) was 8% and the “Obs % visual injury” value ([8]; Table 4, Compound A 10 g/ha) was 15%. For the same compound, the “Obs % visual injury” value ([8]; Table 4, Compound A 15 g/ha) was 10%, the “Obs % visual injury” value ([9]; Compound A 7.5 g/ha) was 3% and the “Obs % visual injury” value ([9]; Compound A 10 g/ha) was 8%. The “Obs % visual injury” value ([10]; Table 1, Compound A 7.5 g/ha) was 83%, the “Obs % visual injury” value ([10]; Table 1, Compound A 10 g/ha) was 93% and the “Obs % visual injury” value ([10]; Table 2, Compound A 7.5 g/ha) was 75%. For the same compound, the “Obs % visual injury” value ([10]; Table 2, Compound A 10 g/ha) was 70%, the “Obs % visual injury” value ([10]; Table 3, Compound A 7.5 g/ha) was 63% and the “Obs % visual injury” value ([10]; Table 3, Compound A 10 g/ha) was 60%. For the same compound, the “Obs % visual injury” value ([10]; Table 3, Compound A 15 g/ha) was 63%, the “Obs % visual injury” value ([10]; Table 4, Compound A 7.5 g/ha) was 63% and the “Obs % visual injury” value ([10]; Table 4, Compound A 10 g/ha) was 60%. The “Obs % visual injury” value ([10]; Table 4, Compound A 15 g/ha) was 63%, the “Obs % visual injury” value ([11]; Table 3, Compound A 7.5 g/ha) was 55% and the “Obs % visual injury” value ([11]; Table 3, Compound A 10 g/ha) was 58%. For the same compound, the “Obs % visual injury” value ([11]; Table 3, Compound A 15 g/ha) was 65%, the “Obs % visual injury” value ([11]; Table 4, Compound A 7.5 g/ha) was 55% and the “Obs % visual injury” value ([11]; Table 4, Compound A 10 g/ha) was 58%. For the same compound, the “Obs % visual injury” value ([11]; Table 4, Compound A 15 g/ha) was 65%, the “Obs % visual injury” value ([12]; Compound A 7.5 g/ha) was 89% and the “Obs % visual injury” value ([12]; Compound A 10 g/ha) was 90%.
